Experimental data: ChEMBL document CHEMBL1152999, “Synthesis and anti-HSV-1 evaluation of some pyrazoles and fused pyrazolopyrimidines” (2009)

What was measured:
Human alphaherpesvirus 1 [1] = assay: Antiviral activity against HSV1 infected in african green monkey Vero cells assessed as reduction in virus plaque formation at 20 ug per 10^5 cells by plaque infectivity assay; format: functional; parameters: scale not given: the % may be the effect or the level left
Human alphaherpesvirus 1 [2] = assay: Antiviral activity against HSV1 infected in african green monkey Vero cells assessed as reduction in virus plaque formation at 10 ug per 10^5 cells by plaque infectivity assay; format: functional; parameters: scale not given: the % may be the effect or the level left

| SMILES | Activity (Human alphaherpesvirus 1 [1]) [%] | Activity (Human alphaherpesvirus 1 [2]) [%] |
| --- | --- | --- |
| CC(=O)OC[C@@H](OC(C)=O)[C@H](OC(C)=O)[C@@H](OC(C)=O)[C@@H](/C=N/Nc1ncnc2c1cnn2-c1ncnc2sc3c(c12)-c1ccccc1CC3)OC(C)=O | 69 | 34 |
| OC[C@@H](O)[C@H](O)[C@@H](O)[C@H](O)/C=N/Nc1ncnc2c1cnn2-c1ncnc2sc3c(c12)-c1ccccc1CC3 | 99 | 43 |
| Cc1nc2c(cnn2-c2ncnc3sc4c(c23)-c2ccccc2CC4)c(=O)[nH]1 | 0 | 44.4 |
| CC(=O)Nc1c(C#N)cnn1-c1ncnc2sc3c(c12)-c1ccccc1CC3 | 67.6 | 0 |
| Nc1nc2c(ncn2COCCO)c(=O)[nH]1 [ACYCLOVIR] | 28 | 12 |
| O=c1[nH]cnc2c1cnn2-c1ncnc2sc3c(c12)-c1ccccc1CC3 | 0 | 47.7 |
| NNc1ncnc2c1cnn2-c1ncnc2sc3c(c12)-c1ccccc1CC3 | 0 | 56 |
| Nc1ncnc2c1cnn2-c1ncnc2sc3c(c12)-c1ccccc1CC3 | 0 | 44.6 |
| N#Cc1cnn(-c2ncnc3sc4c(c23)-c2ccccc2CC4)c1N | 0 | 16.6 |
| CC(=O)OC[C@@H](OC(C)=O)[C@H](OC(C)=O)[C@@H](OC(C)=O)[C@H](OC(C)=O)c1nc2c3cnn(-c4ncnc5sc6c(c45)-c4ccccc4CC6)c3ncn2n1 | 57 | 29 |
| N#Cc1cnn(-c2ncnc3sc4c(c23)-c2ccccc2CC4)c1NC=O | 48 | 28.5 |
